Assay results from patent publication US9221807B2, “Substituted pyridones and pyrazinones and their use as inhibitors of neutrophil elastase activity” (Boehringer Ingelheim International GmbH, priority 2014, dated 2015).

Each molecule was assayed against T1, Human neutrophil elastase (Homo sapiens, UniProt P08246) (assay: Human Neutrophil Elastase Assay). Conditions: substrate MeOSuc-Ala-Ala-Pro-Val-AMC 250 μM, pH 7.5, fluorescence.
T1 construct: purchased Calbiochem 324681
T1 sequence (P08246 30-267): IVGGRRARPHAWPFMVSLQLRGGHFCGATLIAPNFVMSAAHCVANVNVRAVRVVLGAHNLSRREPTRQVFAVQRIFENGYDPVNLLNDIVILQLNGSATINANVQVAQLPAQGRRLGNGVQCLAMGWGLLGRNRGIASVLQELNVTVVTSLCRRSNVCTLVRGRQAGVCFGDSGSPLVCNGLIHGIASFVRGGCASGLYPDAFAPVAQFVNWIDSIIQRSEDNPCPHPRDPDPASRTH
Type: biochemical
Method: Human Neutrophil Elastase Assay
Materials: Human neutrophil elastase was purchased from Calbiochem (Cat. No.: 324681) and the elastase substrate MeOSuc-Ala-Ala-Pro-Val-AMC from Bachem (Cat. No.: 1-1270). All other materials were of the highest grade commercially available. The following buffers were used: Compound buffer: 100 mM Tris, 500 mM NaCl, adjusted to pH 7.5; Assay buffer: 100 mM Tris, 500 mM NaCl, adjusted to pH 7.5, containing 0.01% BSA. Assay conditions: Test compounds were prediluted in DMSO and subsequently in compound buffer (5% DMSO final). 5 μL of these compound dilutions were mixed with 10 μl Neutrophil elastase (9 ng/ml in assay buffer) in a black 384 well OptiPlate (Perkin Elmer, Cat No.: 6007270) and incubated for 15 min at room temperature. Subsequently 10 μL substrate solution in assay buffer were added (250 μM final concentration) and the plates were incubated for 60 min at room temperature. After inactivation of the enzyme, fluorescence intensities were measured at 380 nm excitation and 460 nm emission wavelengths. Each plate contains wells with a high value control (DMSO+enzyme+substrate) and wells with a low value control (DMSO+inactivated enzyme+substrate). IC50 values were estimated using a sigmoidal concentration response curve with variable slope. Means of low values were taken as 0%, means of high values as 100%.

SMILES | IC50
CN=S(=O)(c1ccc(CNC(=O)c2cc(-c3ccnn3C)c(C)n(-c3cccc(C(F)(F)F)c3)c2=O)cc1)N1CCCCC1 (stereo not drawn) [Example 13, 6-Methyl-N-[[4-[N-methyl-S-(1-piperidyl)sulfonimidoyl]phenyl]methyl]-5-(2-methyl-pyrazol-3-yl)-2-oxo-1-[3-(trifluoromethyl)phenyl]pyridine-3-carboxamide] | 28.4 nM
Cc1c(-c2ccnn2C)nc(C(=O)NCc2ccc(S(C)(=O)=NC#N)cc2)c(=O)n1-c1cccc(C(F)(F)F)c1 (single isomer, unassigned) [Example 16, N-[[4-(N-Cyano-S-methyl-sulfonimidoyl)phenyl]methyl]-5-methyl-6-(2-methylpyrazol-3-yl)-3-oxo-4-[3-(trifluoromethyl)phenyl]pyrazine-2-carboxamide] | 11.1 nM
CN=S(C)(=O)c1ccc(CNC(=O)c2cc(-c3ccnn3C)c(C)n(-c3cccc(C(F)(F)F)c3)c2=O)cc1 (centres unmarked) [Example 11, N-[[4-(N,S-Dimethylsulfonimidoyl)phenyl]methyl]-6-methyl-5-(2-methylpyrazol-3-yl)-2-oxo-1-[3-(trifluoromethyl)phenyl]pyridine-3-carboxamide] | 40.3 nM
Cc1c(-c2ccnn2-c2ccc(C#N)cc2)nc(C(=O)NCc2ccc(S(C)(=O)=NC#N)cc2)c(=O)n1-c1cccc(C(F)(F)F)c1 (single isomer, unassigned) [Example 17, N-[[4-(N-Cyano-S-methyl-sulfonimidoyl)phenyl]methyl]-6-[2-(4-cyanophenyl)pyrazol-3-yl]-5-methyl-3-oxo-4-[3-(trifluoromethyl)phenyl]pyrazine-2-carboxamide] | < 1 nM
Cc1c(-c2ccnn2C)cc(C(=O)NCc2ccc(S(C)(=O)=NC#N)cc2)c(=O)n1-c1cccc(C(F)(F)F)c1 (racemic) [Example 3, N-[[4-(N-Cyano-S-methyl-sulfonimidoyl)phenyl]methyl]-6-methyl-5-(2-methylpyrazol-3-yl)-2-oxo-1-[3-(trifluoromethyl)phenyl]pyridine-3-carboxamide] | 2.6 nM
CNC(=O)N=S(C)(=O)c1ccc(CNC(=O)c2cc(-c3ccnn3C)c(C)n(-c3cccc(C(F)(F)F)c3)c2=O)cc1 (centres unmarked) [Example 10, 6-Methyl-N-[[4-[S-methyl-N-(methylcarbamoyl)sulfonimidoyl]phenyl]methyl]-5-(2-methylpyrazol-3-yl)-2-oxo-1-[3-(trifluoromethyl)phenyl]pyridine-3-carboxamide] | 50 nM
Cc1c(-c2ccnn2C)cc(C(=O)NCc2ccc(S(C)(=O)=N[N+](=O)[O-])cc2)c(=O)n1-c1cccc(C(F)(F)F)c1 (centres unmarked) [Example 12, 6-Methyl-N-[[4-(S-methyl-N-nitro-sulfonimidoyl)phenyl]methyl]-5-(2-methylpyrazol-3-yl)-2-oxo-1-[3-(trifluoromethyl)phenyl]pyridine-3-carboxamide] | 5 nM
Cc1c(-c2ccnn2C)cc(C(=O)NCc2ccc(/S(C)=N/C(N)=O)cc2)c(=O)n1-c1cccc(C(F)(F)F)c1 (centres unmarked) [Example 5, N-[[4-(N-Carbamoyl-S-methyl-sulfinimidoyl)phenyl]methyl]-6-methyl-5-(2-methyl-pyrazol-3-yl)-2-oxo-1-[3-(trifluoromethyl)phenyl]pyridine-3-carboxamide] | 35.7 nM
Cc1c(-c2ccnn2C)cc(C(=O)NCc2ccc(S(C)=N)cc2)c(=O)n1-c1cccc(C(F)(F)F)c1 (centres unmarked) [Example 2, 6-Methyl-5-(2-methylpyrazol-3-yl)-N-[[4-(methylsulfinimidoyl)phenyl]methyl]-2-oxo-1-[3-(trifluoromethyl)phenyl]pyridine-3-carboxamide] | 42 nM
Cc1c(-c2ccnn2C)cc(C(=O)NCc2ccc(S(C)(=O)=NC(N)=O)cc2)c(=O)n1-c1cccc(C(F)(F)F)c1 (centres unmarked) [Example 6, N-[[4-(N-Carbamoyl-S-methyl-sulfonimidoyl)phenyl]methyl]-6-methyl-5-(2-methyl-pyrazol-3-yl)-2-oxo-1-[3-(trifluoromethyl)phenyl]pyridine-3-carboxamide] | 45.8 nM
CN=S(=O)(c1ccc(CNC(=O)c2cc(-c3ccnn3C)c(C)n(-c3cccc(C(F)(F)F)c3)c2=O)cc1)N(C)OC (centres unmarked) [Example 1.3] | 12.5 nM
COC(=O)N=S(C)(=O)c1ccc(CNC(=O)c2cc(-c3ccnn3C)c(C)n(-c3cccc(C(F)(F)F)c3)c2=O)cc1 (centres unmarked) [Example 9, Methyl N-[Methyl-[4-[[[6-methyl-5-(2-methylpyrazol-3-yl)-2-oxo-1-[3-(trifluoromethyl)phenyl]pyridine-3-carbonyl]amino]methyl]phenyl]-oxo-λ^6-sulfanylidene]-carbamate] | 17.6 nM
Cc1c(-c2ccnn2C)cc(C(=O)NCc2ccc(S(C)(=N)=N)cc2)c(=O)n1-c1cccc(C(F)(F)F)c1 [Example 14, 6-Methyl-5-(2-methylpyrazol-3-yl)-N-[[4-(methylsulfonodiimidoyl)phenyl]methyl]-2-oxo-1-[3-(trifluoromethyl)phenyl]pyridine-3-carboxamide] | 261 nM
CN=S(=O)(NCc1ccccc1)c1ccc(CNC(=O)c2cc(-c3ccnn3C)c(C)n(-c3cccc(C(F)(F)F)c3)c2=O)cc1 (centres unmarked) [Example 1.2] | 14.4 nM
Cc1c(-c2ccnn2C)cc(C(=O)NCc2ccc(S(C)(=N)=O)cc2)c(=O)n1-c1cccc(C(F)(F)F)c1 (racemic) [Example 4, 6-Methyl-5-(2-methylpyrazol-3-yl)-N-[[4-(methylsulfonimidoyl)phenyl]methyl]-2-oxo-1-[3-(trifluoromethyl)phenyl]pyridine-3-carboxamide] | 173 nM
COCCN=S(C)(=N)c1ccc(CNC(=O)c2cc(-c3ccnn3C)c(C)n(-c3cccc(C(F)(F)F)c3)c2=O)cc1 (centres unmarked) [Example 15, N-[[4-[N-(2-Methoxyethyl)-S-methyl-sulfonodiimidoyl]phenyl]methyl]-6-methyl-5-(2-methylpyrazol-3-yl)-2-oxo-1-[3-(trifluoromethyl)phenyl]pyridine-3-carboxamide] | 43.5 nM
Cc1c(-c2ccnn2C)cc(C(=O)NCc2ccc(/S(C)=N/C#N)cc2)c(=O)n1-c1cccc(C(F)(F)F)c1 (centres unmarked) [Example 1, N-[[4-(N-Cyano-S-methyl-sulfinimidoyl)phenyl]methyl]-6-methyl-5-(2-methyl-pyrazol-3-yl)-2-oxo-1-[3-(trifluoromethyl)phenyl]pyridine-3-carboxamide] | 1.2 nM
Cc1c(-c2ccnn2C)cc(C(=O)NCc2ccc(S(C)(=O)=N/C(N)=N/O)cc2)c(=O)n1-c1cccc(C(F)(F)F)c1 (centres unmarked) [Example 8, N-[[4-[N—[N-Hydroxycarbamimidoyl]-S-methyl-sulfonimidoyl]phenyl]methyl]-6-methyl-5-(2-methylpyrazol-3-yl)-2-oxo-1-[3-(trifluoromethyl)phenyl]pyridine-3-carboxamide] | 64.4 nM
Cc1nc(N=S(C)(=O)c2ccc(CNC(=O)c3cc(-c4ccnn4C)c(C)n(-c4cccc(C(F)(F)F)c4)c3=O)cc2)oc1C (centres unmarked) [Example 7, N-[[4-[N-(4,5-Dimethyloxazol-2-yl)-S-methyl-sulfonimidoyl]phenyl]methyl]-6-methyl-5-(2-methylpyrazol-3-yl)-2-oxo-1-[3-(trifluoromethyl)phenyl]pyridine-3-carboxamide] | 34.3 nM
CN=S(=O)(c1ccc(CNC(=O)c2cc(-c3ccnn3C)c(C)n(-c3cccc(C(F)(F)F)c3)c2=O)cc1)N(C)C (centres unmarked) [Example 1.1] | 11.4 nM

More lines, now with the values ahead:

IC50 | SMILES
37 nM | CC(=O)N=S(C)(=O)c1ccc(CNC(=O)c2cc(-c3ccnn3C)c(C)n(-c3cccc(C(F)(F)F)c3)c2=O)cc1 (centres unmarked) [Example 9.1]
12.6 nM | Cc1c(-c2ccnn2C)cc(C(=O)NCc2ccc(S(C)(=O)=NS(C)(=O)=O)cc2)c(=O)n1-c1cccc(C(F)(F)F)c1 (centres unmarked) [Example 9.3]
2.3 nM | Cc1c(-c2ccnn2C)cc(C(=O)NCc2ccc(S(C)(=O)=NC#N)cc2)c(=O)n1-c1cccc(C(F)(F)F)c1 (single isomer, unassigned) [Example 3B]
6.7 nM | Cc1c(-c2ccnn2C)cc(C(=O)NCc2ccc(S(C)(=N)=NC#N)cc2)c(=O)n1-c1cccc(C(F)(F)F)c1 (centres unmarked) [Example 15.2]
93.9 nM | Cc1c(-c2ccnn2C)cc(C(=O)NCc2ccc(S(C)(=N)=O)cc2)c(=O)n1-c1cccc(C(F)(F)F)c1 (single isomer, unassigned) [Example 4A]
72.7 nM | Cc1c(-c2ccnn2C)cc(C(=O)NCc2ccc(S(C)(=O)=NC(=O)N3CCOCC3)cc2)c(=O)n1-c1cccc(C(F)(F)F)c1 (centres unmarked) [Example 9.2]
4.5 nM | Cc1c(-c2ccnn2C)cc(C(=O)NCc2ccc(S(C)(=O)=NC#N)cc2)c(=O)n1-c1cccc(C(F)(F)F)c1 (single isomer, unassigned) [Example 3A]
88.7 nM | CN=S(C)(=N)c1ccc(CNC(=O)c2cc(-c3ccnn3C)c(C)n(-c3cccc(C(F)(F)F)c3)c2=O)cc1 (centres unmarked) [Example 15.1]
41.5 nM | Cc1c(-c2ccnn2C)cc(C(=O)NCc2ccc(S(C)(=N)=O)cc2)c(=O)n1-c1cccc(C(F)(F)F)c1 (single isomer, unassigned) [Example 4B]
